Columns and labels:
[1] = system: wild-type (WT) C57BL/6J control mice; experiment: second paired saline/lipid infusion 2.5 mU/kg/min hyperinsulinemic-euglycemic clamp, wild-type mice; type: in vivo
Procedure: For the second paired lipid infusion HIE clamp study, 10 week old male B6.129S2-ll6^tmkopf/J (IL-6 KO) and control C57BL/6J (WT) mice from Jackson Labs were used. Mice from each genetic background were randomly assigned to saline-vehicle, saline-PDX, lipid-vehicle and lipid-PDX groups. The lipid-infusion clamp study was performed as described above, except the clamp was performed with a 2.5 mU·kg^−1·min^−1 insulin infusion as per^29.
To confirm the involvement of IL-6 in the beneficial effects of PDX we performed a second round of paired lipid infusion hyperinsulinemic-euglycemic clamp studies in IL-6 null (KO) mice alongside wild-type (WT) C57BL/6J control mice. Saline-infused mice treated with PDX were added to the study to ascertain whether PDX also improves glucose metabolism in insulin-sensitive mice. To ensure detection of potential differences between insulin-sensitive saline-infused animals we performed 2.5mU/kg/min rather than 4 mU/kg/min clamps.

[2] = system: genetically obese db/db mice; experiment: 4 mU/kg hyperinsulinemic-isoglycemic clamp in db/db mice, acute PDX; type: in vivo
Procedure: The 4 mU/kg hyperinsulinemic-isoglycemic clamp study was performed in 10 week old db/db mice from the BKS.Cg-Dock7^m+/+Lepr^db/J strain at Jackson Labs. Mice were randomly assigned to vehicle or PDX treatment groups. In preparation for the clamps mice were catheterized as described for the lipid infusion study. Mice were administered 2 ug of PDX or an equal volume of vehicle i.v. at 4 h and also 90 minutes prior to the initiation of the insulin pump. Pre-clamp glycemia was taken immediately prior to the second PDX shot. The clamp began 90 minutes later with a primed-continuous infusion of human insulin (16 mU/kg bolus followed by 4 mU·kg^−1·min^−1, Humulin R; Eli Lilly, Indianapolis, Ind.). Glycemia was maintained as close as possible to individual fasting values by infusing 20% dextrose as necessary. Blood samples were taken continuously to determine glycemia as well as insulin concentrations. Mice received saline-washed erythrocytes from donor mice throughout the experimental period (5-6 μl·min-1) to prevent a fall of ≧5% hematocrit.
We further explored the therapeutic efficacy of PDX in genetically obese db/db mice, a well-established model of T2D. Here we tested the ability of PDX to rapidly alleviate insulin resistance using a 4 mU/kg hyperinsulinemic-isoglycemic clamp (see design in FIG. 1). In these experiments, db/db mice were treated with vehicle or PDX (2 μg i.v.) 240 and 90 minutes prior to the initiation of the clamp.

[3] = saline and lipid-infused WT mice, P<0.05

SMILES: CC/C=C\C[C@H](O)/C=C/C=C\C=C\[C@@H](O)C/C=C\C/C=C\CCC(=O)O [PDX, 10S,17S-dihydroxy-docosa-4Z,7Z,11E,13Z,15E,19Z-hexaeonic acid]
- Akt phosphorylation ([1]; insulin sensitive saline infused mice): without raising
- hepatic insulin action ([1]; lipid-infused WT mice, P<0.001): improved
- suppression of Ppargc1, Pck1 and G6Pc (liver mRNA) ([1]; lipid-infused WT mice, P<0.01, P<0.05, p<0.001): significantly improved the suppression
- peripheral insulin action ([1]; lipid-infused WT mice, P<0.05): improved
- GIR [1, 3]: significantly enhanced
- pre-clamp glycemia [1, 3]: significant fall
- transcriptional repression of PEPCK (liver) ([1]; saline-infused WT mice, P<0.01): additive effect
- hepatic insulin action ([1]; saline-infused WT mice, P<0.05): superior hepatic insulin action
- suppression of G6Pc (liver) ([1]; saline-infused WT mice, P=0.0614): tended to improve
- peripheral glucose disposal ([1]; saline-infused mice): did not increase
- suppression of PGC-1α (liver mRNA) ([1]; saline-infused mice): not associated with further suppression
- lowering of pre-clamp glycemia ([2]; PDX 2 μg i.v. 240 and 90 minutes prior to clamp): did not reach statistical significance
- improvement of the GIR during the clamp ([2]; PDX 2 μg i.v. 240 and 90 minutes prior to clamp, P<0.01): 3.6 fold
- PGC-1α, PEPCK, and G6Pase mRNA expression in liver ([2]; PDX 2 μg i.v. x2): enhanced suppression
- IL-6 in the skeletal muscle and plasma ([2]; PDX 2 μg i.v. x2, P<0.01): increased
- adipose tissue chemokines or cytokines ([2]; epididymal adipose tissue): absence of any significant anti-inflammatory impact

— US9782379B2, “Use of protectin DX for the stimulation of muscular IL-6 secretion” (Universite Laval, priority 2013, dated 2017)
